Reference: ChEMBL document CHEMBL5724914, “Linking interpersonal differences in gut microbiota composition and drug biotransformation activity” (2024)

What was measured:
[1] = The drug is tested on Z-026 corresponding to metagenome with ENA study accession number: PRJEB37062 and ENA sample accession number: ERS12561825 for biotransformation under anaerobic condition. The drug concentrations were measured over 9 timepoints collected between 0 and 24 hours of incubation by liquid-chromatography-coupled mass spectrometry (LC–MS); details: 2 µM
[2] = The drug is tested on Z-019 corresponding to rat gut metagenome with ENA study accession number: PRJEB37062 and ENA sample accession number: ERS12561818 for biotransformation under anaerobic condition. The drug concentrations were measured over 9 timepoints collected between 0 and 24 hours of incubation by liquid-chromatography-coupled mass spectrometry (LC–MS); details: 2 µM
[3] = The drug is tested on Z-017 corresponding to mouse gut metagenome with ENA study accession number: PRJEB37062 and ENA sample accession number: ERS12561816 for biotransformation under anaerobic condition. The drug concentrations were measured over 9 timepoints collected between 0 and 24 hours of incubation by liquid-chromatography-coupled mass spectrometry (LC–MS); details: 2 µM
[4] = The drug is tested on Z-014 corresponding to rat gut metagenome with ENA study accession number: PRJEB37062 and ENA sample accession number: ERS12561814 for biotransformation under anaerobic condition. The drug concentrations were measured over 9 timepoints collected between 0 and 24 hours of incubation by liquid-chromatography-coupled mass spectrometry (LC–MS); details: 2 µM
[5] = The drug is tested on Z-013 corresponding to rabbit gut metagenome with ENA study accession number: PRJEB37062 and ENA sample accession number: ERS12561813 for biotransformation under anaerobic condition. The drug concentrations were measured over 9 timepoints collected between 0 and 24 hours of incubation by liquid-chromatography-coupled mass spectrometry (LC–MS); details: 2 µM
[6] = The drug is tested on Z-006 corresponding to mouse gut metagenome with ENA study accession number: PRJEB37062 and ENA sample accession number: ERS12561806 for biotransformation under anaerobic condition. The drug concentrations were measured over 9 timepoints collected between 0 and 24 hours of incubation by liquid-chromatography-coupled mass spectrometry (LC–MS); details: 2 µM
[7] = The drug is tested on WLS-240 corresponding to human gut metagenome with ENA study accession number: PRJEB37062 and ENA sample accession number: ERS12561773 for biotransformation under anaerobic condition. The drug concentrations were measured over 9 timepoints collected between 0 and 24 hours of incubation by liquid-chromatography-coupled mass spectrometry (LC–MS); details: 2 µM
[8] = The drug is tested on WLS-170 corresponding to human gut metagenome with ENA study accession number: PRJEB37062 and ENA sample accession number: ERS12561762 for biotransformation under anaerobic condition. The drug concentrations were measured over 9 timepoints collected between 0 and 24 hours of incubation by liquid-chromatography-coupled mass spectrometry (LC–MS); details: 2 µM
[9] = The drug is tested on WLS-077 corresponding to human gut metagenome with ENA study accession number: PRJEB37062 and ENA sample accession number: ERS12561750 for biotransformation under anaerobic condition. The drug concentrations were measured over 9 timepoints collected between 0 and 24 hours of incubation by liquid-chromatography-coupled mass spectrometry (LC–MS); details: 2 µM
[10] = The drug is tested on WLS-027 corresponding to human gut metagenome with ENA study accession number: PRJEB37062 and ENA sample accession number: ERS12561744 for biotransformation under anaerobic condition. The drug concentrations were measured over 9 timepoints collected between 0 and 24 hours of incubation by liquid-chromatography-coupled mass spectrometry (LC–MS); details: 2 µM
[11] = human gut metagenome, 24 h, 2 µM
[12] = human gut metagenome, 24 h, 2 µM; remark: listed apart in the source
[13] = human gut metagenome, 24 h, 2 µM; remark: listed apart in the source
[14] = human gut metagenome, 24 h, 2 µM; remark: listed apart in the source
[15] = human gut metagenome, 24 h, 2 µM; remark: listed apart in the source
[16] = human gut metagenome, 24 h, 2 µM; remark: listed apart in the source
[17] = human gut metagenome, 24 h, 2 µM; remark: listed apart in the source
[18] = human gut metagenome, 24 h, 2 µM; remark: listed apart in the source
[19] = human gut metagenome, 24 h, 2 µM; remark: listed apart in the source
[20] = human gut metagenome, 24 h, 2 µM; remark: listed apart in the source

Measured: Bacterial Biotransformation
Note: call rule not given here.

CNS(=O)(=O)Cc1ccc2[nH]cc(CCN(C)C)c2c1.O=C(O)CCC(=O)O [SUMATRIPTAN SUCCINATE]
Compound metabolized: [7] | [12] | [13] | [15] | [20]
Compound NOT metabolized: [1] | [2] | [3] | [4] | [5] | [6] | [8] | [9] | [10] | [11] | [14] | [16] | [17] | [18] | [19]

Nc1c2c(nc3ccccc13)CCCC2 [TACRINE]
Compound NOT metabolized: [1] | [2] | [3] | [4] | [5] | [6] | [10] | [11] | [17] | [18]
Compound metabolized: [7] | [8] | [9] | [12] | [13] | [14] | [15] | [16] | [19] | [20]

Cc1ccc(S(=O)(=O)NC(=O)NN2CCCCCC2)cc1 [TOLAZAMIDE]
Compound NOT metabolized: [1] | [2] | [3] | [4] | [11] | [18]
Compound metabolized: [5] | [6] | [7] | [8] | [9] | [10] | [12] | [13] | [14] | [15] | [16] | [17] | [19] | [20]

CCOC(=O)[C@H](CCc1ccccc1)N[C@@H](C)C(=O)N1[C@H](C(=O)O)C[C@H]2CCCC[C@@H]21 [TRANDOLAPRIL]
Compound NOT metabolized: [1] | [2] | [3] | [4] | [5] | [6] | [11] | [18]
Compound metabolized: [7] | [8] | [9] | [10] | [12] | [13] | [14] | [15] | [16] | [17] | [19] | [20]

CC(CN(C)C)CN1c2ccccc2CCc2ccccc21.O=C(O)/C=C\C(=O)O (stereo not given) [TRIMIPRAMINE MALEATE]
Compound NOT metabolized: [2] | [3] | [4] | [5] | [6] | [9] | [14] | [15] | [18]
Compound metabolized: [1] | [7] | [8] | [10] | [11] | [12] | [13] | [16] | [17] | [19] | [20]

CC(=O)CC(c1ccccc1)c1c(O)c2ccccc2oc1=O (stereo not given) [WARFARIN]
Compound metabolized: [4] | [5] | [6] | [7] | [8] | [9] | [10] | [12] | [13] | [14] | [15] | [16] | [17] | [19] | [20]
Compound NOT metabolized: [1] | [2] | [3] | [11] | [18]
